# Assay results published in PMC10788925 (Journal of Medicinal Chemistry, 2023).
# Several values for one entry are separate records, joined by “and”; a condition that tells them apart may be missing. Equal values may be shown once. Read-outs that look alike come from different tables or passages of the source.
# Columns and labels:
# in vitro = conditions: human
# HEV-3 replicon p6-Gluc = assay: microbe, parasite or virus in culture; assay type: cell-based, Hepatitis E virus
# [1] = Hepatitis E virus, HepG2, 24 h, read-out: HEV, EC90 (24 h, nM)
# [2] = Hepatitis E virus, HepG2, 48 h, read-out: HEV, EC90 (48 h, nM)2
Molecule,CC50 at 24 h (in vitro),CC50 at 48 h (in vitro),"EC50 (HEV-3 replicon p6-Gluc; Hepatitis E virus, HepG2, 24 h)","EC90 (HEV-3 replicon p6-Gluc; Hepatitis E virus, HepG2, 24 h)","EC50 (HEV-3 replicon p6-Gluc; Hepatitis E virus, HepG2, 48 h)","EC90 (HEV-3 replicon p6-Gluc; Hepatitis E virus, HepG2, 48 h)",CC50 (in vitro),EC50 (HEV-3 replicon p6-Gluc; read-out: EC50),EC90 (HEV-3 replicon p6-Gluc; read-out: EC90),EC90 (HEV-3 replicon p6-Gluc; [1]),EC90 (HEV-3 replicon p6-Gluc; [2])
"COCOc1cc(F)c2c(c1)O[C@@]1(c3ccc(Br)cc3)[C@H](c3ccccc3)[C@@H](C(=O)OC)[C@@H](O)[C@@]21O (racemic) [9nb, (±)-Methyl (1R,2R,3S,3aR,8bS)-3a-(4-bromophenyl)-8-fluoro-1,8b-dihydroxy-6-(methoxymethoxy)-3-phenyl-2,3,3a,8b-tetrahydro-1H-cyclopenta[b]benzofuran-2-carboxylate]",727 nM,113 nM,86.9 nM,345 nM,63.2 nM,298 nM,,,,,
"COC(=O)[C@H]1[C@@H](O)[C@@]2(O)c3c(OC)cc(OC)cc3O[C@@]2(c2ccc(Cl)cc2)[C@@H]1c1ccccc1 (racemic) [9a, (±)-Methyl (1R,2R,3S,3aR,8bS)-3a-(4-chlorophenyl)-1,8b-dihydroxy-6,8-dimethoxy-3-phenyl-2,3,3a,8b-tetrahydro-1H-cyclopenta[b]benzofuran-2-carboxylate]",513 nM,38.8 nM,19.4 nM,140 nM,16.8 nM,105 nM,,,,,
"CONC(=O)[C@H]1[C@@H](O)[C@@]2(O)c3c(F)cc(OC)cc3O[C@@]2(c2ccc(OC)cc2)[C@@H]1c1ccccc1 (racemic) [14hb, (±)-(1R,2R,3S,3aR,8bS)-8-Fluoro-1,8b-dihydroxy-N,6-dimethoxy-3a-(4-methoxyphenyl)-3-phenyl-2,3,3a,8b-tetrahydro-1H-cyclopenta[b]benzofuran-2-carboxamide]",491 nM,27.5 nM,17.2 nM,91.2 nM,10.9 nM,69.8 nM,,,,,
"COC(=O)[C@H]1[C@@H](O)[C@@]2(O)c3c(Cl)cc(Cl)cc3O[C@@]2(c2ccc(Br)cc2)[C@@H]1c1ccccc1 (racemic) [9db, (±)-Methyl (1R,2R,3S,3aR,8bS)-3a-(4-bromophenyl)-6,8-dichloro-1,8b-dihydroxy-3-phenyl-2,3,3a,8b-tetrahydro-1H-cyclopenta[b]benzofuran-2-carboxylate]",389 nM,48 nM,29.6 nM,128 nM,14.7 nM,124 nM,,,,,
"COc1ccc([C@@]23Oc4cc(OC)cc(OC)c4[C@]2(O)[C@H](O)[C@H](C(=O)N(C)C)[C@H]3c2ccccc2)cc1 (racemic) [(±)-rocaglamide (rac-1b), (±)-(1R,2R,3S,3aR,8bS)-1,8b-Dihydroxy-6,8-dimethoxy-3a-(4-methoxyphenyl)-N,N-dimethyl-3-phenyl-2,3,3a,8b-tetrahydro-1H-cyclopenta[b]benzofuran-2-carboxamide, reference compound]",550 nM,44.5 nM,27.8 nM,213 nM,21 nM,201 nM,,,,,
"COc1cc(OC)c2c(c1)O[C@@]1(c3ccc(Cl)cc3)[C@H](c3ccccc3)[C@@H](C(=O)N(C)C)[C@@H](O)[C@@]21O (racemic) [14aa, (±)-(1R,2R,3S,3aR,8bS)-3a-(4-chlorophenyl)-1,8b-dihydroxy-6,8-dimethoxy-N,N-dimethyl-3-phenyl-2,3,3a,8b-tetrahydro-1H-cyclopenta[b]benzofuran-2-carboxamide]",390 nM,22.7 nM,7.2 nM,174 nM,8.9 nM,102 nM,,,,,
"CONC(=O)[C@H]1[C@@H](O)[C@@]2(O)c3c(Cl)cc(Cl)cc3O[C@@]2(c2ccc(OC)cc2)[C@@H]1c1ccccc1 (racemic) [14da, (±)-(1R,2R,3S,3aR,8bS)-6,8-Dichloro-1,8b-dihydroxy-N-methoxy-3a-(4-methoxyphenyl)-3-phenyl-2,3,3a,8b-tetrahydro-1H-cyclopenta[b]benzofuran-2-carboxamide]",511 nM,31.8 nM,8.6 nM,172 nM,9.8 nM,134 nM,,,,,
"COC(=O)[C@H]1[C@@H](O)[C@@]2(O)c3c(F)cc(OC)cc3O[C@@]2(c2ccc(OC)cc2)[C@@H]1c1ccccc1 (racemic) [9h, (±)-Methyl (1R,2R,3S,3aR,8bS)-8-fluoro-1,8b-dihydroxy-6-methoxy-3a-(4-methoxyphenyl)-3-phenyl-2,3,3a,8b-tetrahydro-1H-cyclopenta[b]benzofuran-2-carboxylate]",,163 nM,61 nM,> 1000 nM,64.3 nM,634 nM,> 1000 nM,,,,
"(±)-(1R,2R,3S,3aR,8bS)-8-Bromo-6-chloro-1,8b-dihydroxy-N-methoxy-3a-(4-methoxyphenyl)-3-phenyl-2,3,3a,8b-tetrahydro-1H-cyclopenta[b]benzofuran-2-carboxamide [14g]",,,,,,,,4.1 nM and 5.5 nM,,,
"(±)-(1R,2R,3S,3aR,8bS)-3a-(4-chlorophenyl)-1,8b-dihydroxy-N,6,8-trimethoxy-3-phenyl-2,3,3a,8b-tetrahydro-1H-cyclopenta[b]benzofuran-2-carboxamide [14ab]",,,,,,,,2.8 nM and 2.3 nM,18.2 nM and 23.8 nM,,
"COC(=O)[C@H]1[C@@H](O)[C@@]2(O)c3c(OC)cc(OC)cc3O[C@@]2(c2ccc(F)cc2)[C@@H]1c1ccccc1 (racemic) [11ba, (±)-Methyl (1R,2R,3S,3aR,8bS)-3a-(4-fluorophenyl)-1,8b-dihydroxy-6,8-dimethoxy-3-phenyl-2,3,3a,8b-tetrahydro-1H-cyclopenta[b]benzofuran-2-carboxylate]",,421 nM,338 nM,> 1000 nM,334 nM,> 1000 nM,> 1000 nM,,,> 1000 nM,> 1000 nM
"(±)-(1R,2R,3S,3aR,8bS)-3a-(4-fluorophenyl)-1,8b-dihydroxy-N,6,8-trimethoxy-3-phenyl-2,3,3a,8b-tetrahydro-1H-cyclopenta[b]benzofuran-2-carboxamide [14bab]",,,,,,,,53.7 nM and 52.9 nM,338 nM and 670 nM,,
"COCOc1cc(F)c2c(c1)O[C@@]1(c3ccc(OC)cc3)[C@H](c3ccccc3)[C@@H](C(=O)OC)[C@@H](O)[C@@]21O (racemic) [9na, (±)-Methyl (1R,2R,3S,3aR,8bS)-8-fluoro-1,8b-dihydroxy-6-(methoxymethoxy)-3a-(4-methoxyphenyl)-3-phenyl-2,3,3a,8b-tetrahydro-1H-cyclopenta[b]benzofuran-2-carboxylate]",912 nM,236 nM,202 nM,> 1000 nM,146 nM,873 nM,,,,,
"COC(=O)[C@H]1[C@@H](O)[C@@]2(O)c3c(Br)cc(Br)cc3O[C@@]2(c2ccc(OC)cc2)[C@@H]1c1ccccc1 (racemic) [9e, (±)-Methyl (1R,2R,3S,3aR,8bS)-6,8-dibromo-1,8b-dihydroxy-3a-(4-methoxyphenyl)-3-phenyl-2,3,3a,8b-tetrahydro-1H-cyclopenta[b]benzofuran-2-carboxylate]",766 nM,90.2 nM,36.1 nM,362 nM,33.2 nM,282 nM,,,,,
"COC(=O)[C@H]1[C@@H](O)[C@@]2(O)c3c(OC)cc(F)cc3O[C@@]2(c2ccc(OC)cc2)[C@@H]1c1ccccc1 (racemic) [9i, (±)-Methyl (1R,2R,3S,3aR,8bS)-6-fluoro-1,8b-dihydroxy-8-methoxy-3a-(4-methoxyphenyl)-3-phenyl-2,3,3a,8b-tetrahydro-1H-cyclopenta[b]benzofuran-2-carboxylate]",,904 nM,> 1000 nM,> 1000 nM,732 nM,> 1000 nM,> 1000 nM,,,> 1000 nM,> 1000 nM
"COC(=O)[C@H]1[C@@H](O)[C@@]2(O)c3c(OC)cc(O[C@@H]4O[C@@H]([C@H](O)CO)CO[C@H]4OC)cc3O[C@@]2(c2ccc(OC)cc2)[C@@H]1c1ccccc1 [(−)-silvestrol (2a), silvestrol, reference compound]",180 nM,13.4 nM,4.2 nM,40.5 nM,2.2 nM,28.1 nM,,,,,
"COC(=O)[C@H]1[C@@H](O)[C@@]2(O)c3c(Br)cc(Cl)cc3O[C@@]2(c2ccc(OC)cc2)[C@@H]1c1ccccc1 (racemic) [9g, (±)-Methyl (1R,2R,3S,3aR,8bS)-8-bromo-6-chloro-1,8b-dihydroxy-3a-(4-methoxyphenyl)-3-phenyl-2,3,3a,8b-tetrahydro-1H-cyclopenta[b]benzofuran-2-carboxylate]",812 nM,101 nM,52.1 nM,482 nM,37.9 nM,365 nM,,,,,
"(±)-(1R,2R,3S,3aR,8bS)-1,8b-Dihydroxy-N,6,8-trimethoxy-3a-(4-methoxyphenyl)-3-phenyl-2,3,3a,8b-tetrahydro-1H-cyclopenta[b]benzofuran-2-carboxamide [(±)-CR-31-B (rac-1c), reference compound]",,,,,,,,6.1 nM and 3.7 nM,27.3 nM and 29 nM,,
